Laboratory results as given in patent US20130263297A1, “METHODS OF TREATING CANCER” (Cedars-Sinai Medical Center, priority 2010, published 2013).
Entries after “also recorded” stand apart in the source; their conditions may differ. One block for each molecule: values may come before it.

Tests used:
ARCaPE-RANKL cells = experiment: Pathway inhibitor treatment followed by Western blot analysis, ARCaPE-RANKL; assay type: cell-based, human
Protocol: (§1) ARCaPE and LNCaP cells were cultured in 6-well plate and at 70% confluency, the cells were serum-starved overnight and then treated with 200 ng/ml of trimerized RANKL in serum-free and phenol-red free RPMI-1640 medium for three days before harvesting the cells. ARCaPE-RANKL and LNCaP-RANKL cells were cultured in 6-well plate and treated with 20 μM of LY294002, a PI3K inhibitor, 20 μM of SB203580, an inhibitor of MAP kinase reactivating kinase, or 2 μM of PS341 (bortezomib), a proteasome inhibitor, at 90% confluency for four hours. Cells were lysed in RIPA buffer containing 1× protease inhibitor cocktail (Thermo Fisher Scientific, Waltham, Mass.) and centrifuged, and the supernatants were collected and quantified using Bradford Protein Assay (Thermo Fisher Scientific, Waltham, Mass.). Cell lysates (20-30 μg) were resolved on a 4-12% Bis-Tris gradient SDS-PAGE (Invitrogen, Carlsbad, Calif.) under reducing conditions, followed by transblotting onto nitrocellulose membrane (BioRad, Hercules, Calif.). The membranes were blocked in 5% non-fat milk in PBST for one hour at room temperature (RT) and incubated with diluted primary antibodies in blocking buffer at 4° C. overnight. The primary antibodies used were RANKL, E-cadherin, vimentin, and OPG (Santa Cruz Biotechnology, Inc., Santa Cruz, Calif.), RANK (Amgen, Thousand Oaks, Calif.), N-cadherin (BD Transduction Laboratories, San Jose, Calif.), phosphor-Akt (Ser 473), Akt, phosphor-p38 (Thr180/Tyr182), p38, phosphor-ERK1/2 (Thr202/Tyr204), ERK, phosphor-SAPK/JNK (Thr183/Tyr185), JNK, phosphor-NF-κB p65 (Ser536), and NF-κB p65 (Cell Signaling Technology, Danvers, Mass.). The membranes were washed with PBST for three times before incubating with peroxidase-conjugated anti-mouse or anti-rabbit secondary antibodies at RT for one hour. After three times washing, the membranes were visualized using ECL Plus reagent (GE Healthcare, Piscataway, N.J.).

LNCaP-RANKL cells = experiment: Pathway inhibitor treatment followed by Western blot analysis, LNCaP-RANKL; assay type: cell-based, human; conditions: 4 h
Protocol: ARCaPE and LNCaP cells were cultured in 6-well plate and at 70% confluency, the cells were serum-starved overnight and then treated with 200 ng/ml of trimerized RANKL in serum-free and phenol-red free RPMI-1640 medium for three days before harvesting the cells. ARCaPE-RANKL and LNCaP-RANKL cells were cultured in 6-well plate and treated with 20 μM of LY294002, a PI3K inhibitor, 20 μM of SB203580, an inhibitor of MAP kinase reactivating kinase, or 2 μM of PS341 (bortezomib), a proteasome inhibitor, at 90% confluency for four hours. Cells were lysed in RIPA buffer containing 1× protease inhibitor cocktail (Thermo Fisher Scientific, Waltham, Mass.) and centrifuged, and the supernatants were collected and quantified using Bradford Protein Assay (Thermo Fisher Scientific, Waltham, Mass.). Cell lysates (20-30 μg) were resolved on a 4-12% Bis-Tris gradient SDS-PAGE (Invitrogen, Carlsbad, Calif.) under reducing conditions, followed by transblotting onto nitrocellulose membrane (BioRad, Hercules, Calif.). The membranes were blocked in 5% non-fat milk in PBST for one hour at room temperature (RT) and incubated with diluted primary antibodies in blocking buffer at 4° C. overnight. […]

[1] = target: Flag-tagged RANKL stably expressed in LNCaP cells (LNCaP-RANKL); experiment: cell-based or functional assay
[2] = tested on: RANKL promoter in ARCaPE, ARCaPM and ARCaPE-RANKL cells; experiment: RANKL promoter reporter assay, ARCaP model; assay type: cell-based, human; conditions: vitamin D3 and PTH stimulation
Text: (§2) Because the inventors are interested in how RANKL is transcriptionally regulated, the inventors have constructed a 2.5 kb 5′ upstream region of RANKL promoter. The inventors used BAC clones (RP11-86N24) to amplify the promoter region of RANKL from human chromosome 13 contig. The whole promoter region (2.5 kb) was then cloned into pGL3 basic luciferase reporter vector. The inventors placed RANKL promoter reporter into ARCaPE,M, C4-2, and a positive cell line, SaOS-2 to examine the basic promoter activity. Then, the inventors stimulated the RANKL promoter by various growth factors, such as vitamin D3, PTH, and TGFβ.

[3] = tested on: RANKL promoter in human osteosarcoma SaOS-2 cells; experiment: RANKL promoter reporter assay, SaOS-2; assay type: cell-based; conditions: exogenous PTH and vitamin D3
Text: as §2

[4] = tested on: RANKL promoter in LNCaP and LNCaP-RANKL cells; experiment: RANKL promoter reporter assay, LNCaP model; assay type: cell-based, human; conditions: for RANKL promoter activities in LNCaP cells: vitamin D3 and PTH stimulation
LNCaP cells = experiment: EMT marker / RANKL expression and signaling by RT-PCR and Western blot, LNCaP model; assay type: cell-based, human; conditions: 20 μM cMyc inhibitor
Protocol: Total RNA from cells was isolated using RNeasy Mini Kit (Qiagen, Valencia, Calif.) according to manufacturer's instructions. Complementary DNA (cDNA) was generated from 3 μg of total RNA using SuperScript® III First-Strand Synthesis System (Invitrogen, Carlsbad Calif.), and 1 μl of cDNA was subjected to PCR analyses using the following primers: RANKL F: 5′-TGGATCACAGCACATCAGAGCAG-3′ (SEQ ID NO:3); RANKL R: 5′-TGGGGCTCAATCTATATCTCGAAC-3′ (SEQ ID NO:4); RANK F: 5′-GGGAAAGCACTCACAGCTAATTTG-3′ (SEQ ID NO:5); RANK R: 5′-GCACTGGCTTAAACTGTCATTCTCC-3′ (SEQ ID NO:6); OPG F: 5′-GCT AAC CTC ACC TTC GAG-3′ (SEQ ID NO:7); OPG R: 5′-TGA TTG GAC CTG GTT ACC-3′ (SEQ ID NO:8); E-cadherin F: 5′-GCCAAGCAGCAGTACATTCTACACG-3′ (SEQ ID NO:9); E-cadherin R: 5′-GCTGTTCTTCACGTGCTCAAAATCC-3′ (SEQ ID NO:10); N-cadherin F: 5′-GATGTTGAGGTACAGAATCGT-3′ (SEQ ID NO:11); N-cadherin R: 5′-GGT CGG TCT GGA TGG CGA-3′ (SEQ ID NO:12); Snail F: 5′-CAGACCCACTCAGATGTCAA-3′ (SEQ ID NO:13); Snail R: 5′-CATAGTTAGTCACACCTCGT-3′ (SEQ ID NO:14); Vimentin F: 5′-GGA CTC GGT GGA CTT CTC-3′ (SEQ ID NO:15); Vimentin R: 5′-CGC ATC TCC TCC TCG TAG-3′ (SEQ ID NO:16). The PCR reaction cycles involved an initial denaturation at 94° C. for 10 min, followed by 36 cycles of 94° C., 1 min; 55° C., 30 sec for RANKL and RANK and 48° C., 1 min for OPG; 72° C., 1 min and a final extension at 72° C. for 10 min. For E-cadherin and N-cadherin gene amplification, the PCR reactions ran for a total of 32 cycles and the annealing temperature was 55° C. and 47° C., respectively for 30 sec. For Snail, Vimentin, and GAPDH amplification, the PCR reactions ran for a total of 28 cycles with annealing temperatures at 48° C. for 30 sec. The amplified PCR products were detected and analyzed on 1% agarose gel.
as §1

[5] = target: GFP-tagged RANKL stably expressed in ARCaPE cells (ARCaPE-RANKL); experiment: cell-based or functional assay
[6] = tested on: castration-resistant prostate cancer (CRPC) with bone metastasis; prostate or breast cancers; conditions: cited from earlier work
[7] = tested on: RANKL-expressing prostate cancer cells; experiment: Stem cell and neuroendocrine marker expression; assay type: cell-based
cMet in LNCaP cells = experiment: cMet expression and phosphorylation (Western blot), LNCaP; assay type: cell-based, human
cMet in ARCaPE cells = experiment: cMet expression and phosphorylation (Western blot), ARCaPE; assay type: cell-based, human; conditions: exogeneous RANKL or HGF treatment
[8] = 20 μM LY294002 or 2 μM PS341, 4 h
[9] = men with clinical progressive prostate or breast cancers

Molecule: C[S+]([O-])c1ccc(-c2nc(-c3ccncc3)c(-c3ccc(F)cc3)[nH]2)cc1 (stereo not shown) [SB203580]
- phosphorylated level of P65 in ARCaPE-RANKL cells (ARCaPE-RANKL cells; 20 μM, 4 h): reduction
- phosphorylated level of P65 in LNCaP-RANKL cells (LNCaP-RANKL cells; 20 μM): reduction

- formation of mature osteoclasts (TRAP+ multinucleated cells) in co-culture of RAW264.7 with LNCaP-RANKL cells [1]: 2 fold
Molecule: recombinant osteoprotegerin (OPG)

Molecule: C=C1CC[C@H](O)C/C1=C/C=C1\CCC[C@]2(C)[C@@H]([C@H](C)CCCC(C)C)CC[C@@H]12 [vitamin D3, reference compound]
- RANKL promoter activities in ARCaPE cells [2]: induced
- RANKL transcriptional (promoter) activity in SaOS-2 cells [3]: induced; also recorded: up-regulated
- RANKL promoter activities in LNCaP cells [4]: induced

Molecule: CCc1ccc(/C=C2/SC(=S)NC2=O)cc1 [10058-F4, reference compound]
- RANKL protein expression in LNCaP-RANKL cells or LNCaP cells treated with RANKL (LNCaP cells): significantly decreased
- RANKL transcriptional activity in LNCaP-RANKL cells or LNCaP cells treated with RANKL ([4]; 20 μM cMyc inhibitor): significantly decreased

- formation of mature osteoclasts (TRAP+ multinucleated cells) in co-culture of RAW264.7 with ARCaPE-RANKL cells [5]: 2 fold
Molecule: recombinant osteoprotegerin (OPG) (receptor)

Molecule: CC(C)C[C@H](NC(=O)[C@H](Cc1ccccc1)NC(=O)c1cnccn1)B(O)O [PS341, bortezomib]
- RANKL-induced EMT in ARCaPE-RANKL cells (ARCaPE-RANKL cells; 2 μM, 4 h): prevented
- E-cadherin expression in ARCaPE-RANKL cells (ARCaPE-RANKL cells; [8]): increased
- vimentin and RANKL expression in ARCaPE-RANKL cells (ARCaPE-RANKL cells; [8]): decreased
- RANKL-induced EMT in LNCaP-RANKL cells (LNCaP-RANKL cells; 2 μM): prevented

Molecule: denosumab
- osteonecrosis (undesirable side effects) ([6]; human, in vivo): reported in some patients
- patients' survival [6, 9]: improved
- skeletal related events [6, 9]: reduced
- progression of castration-resistant prostate cancer (CRPC) ([6]; patients with bone metastasis): delay or prevent
- expression of neuroendocrine markers [7]: blocked
- expression of stem cell markers [7]: antagonized

Molecule: HGF: HGF, exogenous treatment activating c-Met
- p-c-Met expression of the RANKL-induced c-Met (cMet in LNCaP cells; addition of HGF): increased
- cMet expression and phosphorylated level of cMet in LNCaP cells (cMet in LNCaP cells; exogeneous RANKL or HGF treatment): significantly increased
- cMet expression and phosphorylated level of cMet in ARCaPE cells (cMet in ARCaPE cells): significantly increased

B1: parathyroid hormone (protein, UniProt P01270 32-115, looked up)
Parathyroid hormone: SVSEIQLMHNLGKHLNSMERVEWLRKKLQDVHNFVALGAPLAPRDAGSQRPRKKEDNVLVESHEKSLGEADKADVNVLTKAKSQ
modifications: Parathyroid hormone
- RANKL promoter activities in ARCaPE cells [2]: induced
- RANKL transcriptional (promoter) activity in SaOS-2 cells [3]: induced; also recorded: up-regulated
- RANKL promoter activities in LNCaP cells [4]: induced
